Experimental data reported in US20170215424A1 (SUMITOMO CHEMICAL COMPANY, LIMITED, priority 2014, published 2017).

Assays:
Type in all cases: in vivo
[1] = test system: Blattella germanica; test: Test Example 1: spray knockdown test on Blattella germanica; settings: 0.25 h, 10 vermin, oil solution 2.0% w/v, 1.5 ml sprayed, within 15 minutes, read-out: knockdown ratio of test vermin within 15 minutes
Description: (§1) A formulation containing each of the present amide compounds (1), (2), (4), (8), (12), (13), (14), (15), (16), (18), (20), (24), (25), (27) and (28) prepared in accordance with Formulation Example 7 was diluted with an isopropyl alcohol/deodorized kerosine=1/9 mixed liquid so that the active ingredient concentration became 2.0% w/v, to prepare a drug solution for a test.
Ten vermin of Blattella germanica (male female each five vermin) were allowed to release in a container for a test in which a butter was applied on an inner wall (diameter 8.75 cm, height 7.5 cm, bottom face covered with 16 mesh wire net), and the container was arranged on a bottom of a chamber for a test (bottom surface: 46 cm×46 cm, height: 70 cm). From a height of 60 cm from an upper side of the container, 1.5 ml of the drug solution for a test was sprayed using a spray gun (spraying pressure 0.42 kg/cm^2). Thirty seconds after spraying, the container was taken out from the chamber for a test, the number of vermin which had been knocked down was counted for 15 minutes with time, and a knockdown ratio was obtained. The knockdown ratio was calculated by the following expression.
(§2) Knockdown ratio (%)=(number of knocked down vermin/number of test vermin)×100

[2] = test system: Culexpipienspallens; test: Test Example 3: spray knockdown test on Culexpipienspallens imagoes; settings: 0.25 h, oil solution 0.1% w/v, 0.5 ml sprayed, within 15 minutes, read-out: knockdown ratio of the test vermin within 15 minutes
Description: as §1, with “(4), (5), (6), (7),” for “(4),”, “(8), (9), (10),” for “(8),”, “(19), (21), (22),” for “(20),”, “(25), (26) and” for “(25),”, “(27)” for “(27) and (28)”, “0.1%” for “2.0%”
Ten imagoes of Culexpipienspallens were allowed to release in a polyethylene cup (bottom surface diameter 10.6 cm), and the cup was covered with a 16 mesh nylon gauze. The polyethylene cup was arranged on a bottom of a chamber for a test (bottom surface: 46 cm×46 cm, height: 70 cm). From a height of 30 cm from an upper surface of the polyethylene cup, 0.5 ml of the drug solution for a test was sprayed using a spray gun (spraying pressure 0.4 kg/cm^2). After spraying, the cup was immediately taken out from the chamber for a test, the number of knocked down vermin was counted for 15 minutes with time, and a knockdown ratio was obtained. The knockdown ratio was calculated by the following expression.
as §2

[3] = test system: Adoxophyesoranafasciata; test: Test Example 8: apple seedling spray test on first instar larvae of Adoxophyesoranafasciata; settings: first instar larvae of Adoxophyesoranafasciata on apple seedlings; 500 ppm spray, 20 ml; seven days after spraying
Description: A formulation of the present amide compound (9) prepared in accordance with Formulation Example 15 was diluted with water so that the active ingredient concentration became 500 ppm, to prepare a spray solution for a test. On the other hand, 20 ml of the spray solution for a test was spraying-treated on each of apple seedlings (28 days after seeding, tree height about 15 cm) planted in a plastic cup. After the drug solution which had spray-treated on the apple was air-dried to an extent that the drug solution was dried, about 30 first instar larvae of Adoxophyesoranafasciata were released. Seven days after spraying, the number of live vermin on an apple seedling was investigated, and a controlling value was obtained according to the following expression. Controlling value (%)={1−(Cb×Tai)/(Cai×Tb)}×100 In addition, letters in the expression indicate the following meanings. Cb: Number of vermin before treatment of non-treated section Cai: Number of vermin at observation of non-treated section Tb: Number of vermin before treatment of treated-section Tai: Number of vermin at observation of treated-section

[4] = test system: Spodopteralitura; test: Test Example 7: cabbage spray test on fourth instar larvae of Spodopteralitura; settings: 500 ppm spray, 20 ml/cup, after 4 days
Description: A formulation containing the present amide compound (25) prepared in accordance with Formulation Example 15 was diluted with water so that active ingredient concentration became 500 ppm, to preparer a spray solution for a test. On the other hand, a cabbage was planted in a polyethylene cup, and grown until a third true leaf or a fourth true leaf developed. On the cabbage, the spray solution for a test was sprayed at a rate of 20 ml/cup. After the drug solution which had been spraying-treated on the cabbage was dried, ten fourth instar larvae of Spodopteralitura were parasitized. The number of live vermin of Spodopteralitura on a cabbage leaf was investigated after 4 days, and a controlling value was obtained according to the following expression. Controlling value (%)={1−(Cb×Tai)/(Cai×Tb)}×100 In addition, letters in the equation represent the following meanings. Cb: Number of vermin before treatment of non-treated section Cai: Number of vermin at observation of non-treated section Tb: Number of vermin before treatment of treated-section Tai: Number of vermin at observation of treated-section

Compound	pest or weed control at 2 % strength [1] [%]	pest or weed control at 0.1 % strength [2] [%]	controlling value [3] [%]	controlling value [4] [%]
O=C(NCC1CCOC1)C1=COC(COCc2ccccc2)CC1 (stereo not drawn)	≥ 80			
CCCCC1CC(C(=O)NCC2CCOC2)=NO1 (stereo not drawn) [present amide compound (1), N-(tetrahydrofuran-3-ylmethyl)-5-butyl-4,5-dihydroisoxazole-3-carboxamide]	≥ 80	≥ 80		
CCCCCC1CC(C(=O)NCC2CCOC2)=NO1 (stereo not drawn) [present amide compound (2), N-(tetrahydrofuran-3-ylmethyl)-5-pentyl-4,5-dihydroisoxazole-3-carboxyamide]	≥ 80	≥ 80		
O=C(NCC1CCOC1)C1=NOC(CCc2ccccc2)C1 (stereo not drawn) [present amide compound (4), N-(tetrahydrofuran-3-ylmethyl)-5-phenethyl-4,5-dihydroisoxazole-3-carboxamide]	≥ 80	≥ 80		
O=C(NCC1CCOC1)C1=NOC(COc2ccccc2)C1 (stereo not drawn) [present amide compound (5), N-(tetrahydrofran-3-ylmethyl)-5-(phenoxymethyl)-4,5-dihydro isoxazole-3-carboxamide]		≥ 80		
O=C(NCC1CCOC1)C1=NOC(CCOc2ccccc2)C1 (stereo not drawn) [present amide compound (6), N-(tetrahydrofran-3-ylmethyl)-5-(2-phenoxyethyl)-4,5-dihydroisoxazole-3-carboxamide]		≥ 80		
O=C(NCC1CCOC1)C1=NOC(CCCOc2ccccc2)C1 (stereo not drawn) [present amide compound (7), N-(tetrahydrofran-3-ylmethyl)-5-(3-phenoxypropyl)-4,5-dihydroisoxazole-3-carboxamide]		≥ 80		
O=C(NCC1CCOC1)C1=NOC(CCCCOc2ccccc2)C1 (stereo not drawn) [present amide compound (8), N-(tetrahydrofuran-3-ylmethyl)-5-(4-phenoxybutyl)-4,5-dihydroisoxazole-3-carboxamide]	≥ 80	≥ 80		
O=C(NCC1CCOC1)C1=NOC(CCCCCOc2ccccc2)C1 (stereo not drawn) [present amide compound (9), N-(tetrahydrofuran-3-ylmethyl)-5-(5-phenoxypentyl)-4,5-dihydroisoxazole-3-carboxamide]		≥ 80	100	
O=C(NCC1CCOC1)C1=NOC(CCCCCCOc2ccccc2)C1 (stereo not drawn) [present amide compound (10), N-(tetrahydrofuran-3-ylmethyl)-5-(6-phenoxyhexyl)-4,5-dihydroisoxazole-3-carboxamide]		≥ 80		
O=C(NCC1CCOC1)C1=NOC(CCOCc2ccccc2)C1 (stereo not drawn) [present amide compound (12), N-(tetrahydrofuran-3-ylmethyl)-5-(2-benzyloxyethyl)-4,5-dihydroisoxazole-3-carboxamide]	≥ 80	≥ 80		
O=C(NCC1CCOC1)C1=NOC(CCCOCc2ccccc2)C1 (stereo not drawn) [present amide compound (13), N-(tetrahydrofuran-3-ylmethyl)-5-(3-benzyloxypropyl)-4,5-dihydroisoxazole-3-carboxamide]	≥ 80	≥ 80		
O=C(NCC1CCOC1)C1=NOC(CCCCOCc2ccccc2)C1 (stereo not drawn) [present amide compound (14), N-(tetrahydrofuran-3-ylmethyl)-5-(4-benzyloxybutyl)-4,5-dihydroisoxazole-3-carboxamide]	≥ 80	≥ 80		
O=C(NCC1CCOC1)C1=NOC(CCCCCOCc2ccccc2)C1 (stereo not drawn) [present amide compound (15), N-(tetrahydrofuran-3-ylmethyl)-5-(5-benzyloxypentyl)-4,5-dihydroisoxazole-3-carboxamide]	≥ 80	≥ 80		
O=C(NCC1CCOC1)C1=NOC(CCCCCCOCc2ccccc2)C1 (stereo not drawn) [present amide compound (16), N-(tetrahydrofuran-3-ylmethyl)-5-(6-benzyloxyhexyl)-4,5-dihydroisoxazole-3-carboxamide]	≥ 80	≥ 80		
O=C(NCC1CCOC1)C1=NOC(CCCOCCc2ccccc2)C1 (stereo not drawn) [present amide compound (18), N-(tetrahydrofuran-3-ylmethyl)-5-(3-phenethyloxypropyl)-4,5-dihydroisoxazole-3-carboxamide]	≥ 80	≥ 80		
O=C(NCC1CCOC1)C1=NOC(COc2ccc3ccccc3c2)C1 (stereo not drawn) [present amide compound (19), N-(tetrahydrofuran-3-ylmethyl)-5-(2-naphthyloxymethyl)-4,5-dihydroisoxazole-3-carboxamide]		≥ 80		
O=C(NCC1CCOC1)C1=NOC(COCc2ccc3ccccc3c2)C1 (stereo not drawn) [present amide compound (20), N-(tetrahydrofuran-3-ylmethyl)-5-(2-naphthylmethyloxymethyl)-4,5-dihydroisoxazole-3-carboxamide]	≥ 80			
O=C(NCC1CCOC1)C1=NOC(CCCOCc2ccc3ccccc3c2)C1 (stereo not drawn) [present amide compound (21), N-(tetrahydrofuran-3-ylmethyl)-5-(2-naphthylmethyloxypropyl)-4,5-dihydroisoxazole-3-carboxamide]		≥ 80		
CC1C(C(=O)NCC2CCOC2)=NOC1COc1ccccc1 (stereo not drawn) [present amide compound (22), N-(tetrahydrofuran-3-ylmethyl)-4-methyl-5-phenoxymethyl-4,5-dihydroisoxazole-3-carboxamide]		≥ 80		
O=C(NCC1CCOC1)C1=NOC(COc2ccccc2)CC1 (stereo not drawn) [present amide compound (24), N-(tetrahydrofuran-3-ylmethyl)-6-phenoxymethyl-5,6-dihydro-4H-[1,2]oxazine-3-carboxamide]	≥ 80	≥ 80		
O=C(NCC1CCOC1)C1=NOC(COc2cccc(Cl)c2)CC1 (stereo not drawn) [present amide compound (25), N-(tetrahydrofuran-3-ylmethyl)-6-(3-chloro-phenoxymethyl)-5,6-dihydro-4H-[1,2]oxazine-3-carboxamide]	≥ 80	≥ 80		≥ 80
O=C(NCC1CCOC1)C1=NOC(COCc2ccccc2)CC1 (stereo not drawn) [present amide compound (26), N-(tetrahydrofuran-3-ylmethyl)-6-benzyloxymethyl-5,6-dihydro-4H-[1,2]oxazine-3-carboxamide]		≥ 80		
O=C(NCC1CCOC1)C1=COC(COc2ccccc2)CC1 (stereo not drawn) [present amide compound (27), N-(tetrahydrofuran-3-ylmethyl)-6-phenoxymethyl-5,6-dihydro-4H-pyrane-3-carboxamide]	≥ 80	≥ 80		
